Where no end group is shown, it is not given here.
How the values were obtained:
[1] = target: T1, PDZD7 PDZ1ext G103R (Mus musculus, UniProt E9Q9W7, G103R); assay: NMR titration of PDZ1ext G103R; type: binding, murine; conditions: Tris HCl pH 7.5 (50 mM), 25°C
T1 construct: PDZ1 (81-167), PDZ1ext (81-192); GST (followed by TEV site) (N, cleaved yes); made in house; host or cells: E. coli BL21 DE3
Protocol: All experiments were recorded at 25°C on a Bruker 800 MHz spectrometer equipped with a triple resonance ^1H{^13C/^15N} cryoprobe. The ^1H, ^15 N and ^13C backbone resonances assignment of PDZ1ext was carried out using 3D HNCA, HNCACB, HNCO, HNCOCA experiments (Tris HCl buffer adjusted to pH 6). The 2D ^1H-^15N HSQC spectra used to compare PDZ1, PDZ1ext, PDZ2 and PDZ2ext were recorded in Tris HCl pH 7.5 (50 mM). The 2D ^1H-^15N HSQC spectra used to compare PDZ1ext, PDZ2ext and P1P2 were recorded in Phosphate Buffer pH 6.5 (50 mM). Titration experiments of PDZ1 (WT), PDZ1ext (WT) and PDZ1ext (G103R) against ADGRV1pbm peptide were performed in Tris HCl pH 7.5 (50 mM). Averaged Chemical Shifts Perturbations (CSP) were calculated as: Δδavg = ((Δδ(^1H))^2+(Δδ(^15N)*0.159)^2)^½. […]
We characterized the potential effect of the two substitutions on the interaction with ADGRV1pbm using a panel of techniques. First, we confirmed by NMR that PDZ1ext G103R is well-folded, with significant perturbations (CSPs >0.04 ppm) only detected for residues spatially close to the G103R mutation (Supplementary Figure S10). […] We calculated Rg = 28 Å and Dmax = 118.2 Å for the mutant tandem without ligand, and Rg = 27.7 Å and Dmax = 123.6 Å in presence of ADGRV1pbm peptide. […]

[2] = target: T2, PDZD7 P1P2 G103R (Mus musculus, UniProt E9Q9W7, G103R); assay: Fluorescence titration of P1P2 G103R; type: binding, murine
T2 construct: PDZ2ext (206-313), P1P2 (81-313); GST (followed by TEV site) (N, cleaved yes); made in house; host or cells: E. coli BL21 DE3
Protocol: Fluorescence titrations were performed on a Jasco V-730 spectrometer using quartz cell 109.004F-QS (Hellma Analytics) with an optical path of 10 mm and with thick side to reduce the inner filter effect. PDZ1ext and P1P2 were prepared in Phosphate Buffer pH 6.6 (50 mM) at 6 and 2 µM respectively, while PDZ2ext was prepared in Tris HCl pH 7.5 (50 mM) at 5 µM. Variations in the quantum yield of fluorescence of tryptophans from the sample were monitored upon progressive addition of buffered ADGRV1pbm peptide. After peptide addition, the sample is homogenized by in-spectrometer magnet agitation for 30 s. The sample is left to rest for an additional 60 s before measurement. Excitation is set at 295 nm and fluorescence was measured at the maximum emission wavelength (346-349 nm) of the unbound form with a 5 nm bandwidth for both. Titration curves were fitted using the following formula: y = Fp∗p0+(Fx-Fp)∗0.5∗(R∗I0+(1-R)∗x + K-((R∗I0+(1-R)∗x + K)^2-4∗R∗(I0-x)∗x)^1/2), where p0 is the initial protein concentration, I0 the peptide stock concentration, R the p0/I0 ratio, x the volume of added peptide in µl, Fp the fluorescence of PDZ constructs, Fx the fluorescence of the complex, and K the Kd. The values of p0, I0 and R are kept constant.
We characterized the potential effect of the two substitutions on the interaction with ADGRV1pbm using a panel of techniques. […]

T2 sequence (E9Q9W7 81-313 G103R): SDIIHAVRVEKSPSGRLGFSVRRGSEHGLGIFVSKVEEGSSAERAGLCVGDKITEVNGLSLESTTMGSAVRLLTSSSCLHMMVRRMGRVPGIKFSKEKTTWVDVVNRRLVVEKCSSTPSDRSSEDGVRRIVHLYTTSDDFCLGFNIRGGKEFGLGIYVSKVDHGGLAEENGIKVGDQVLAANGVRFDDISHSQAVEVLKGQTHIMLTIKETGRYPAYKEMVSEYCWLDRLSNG
T1 sequence (E9Q9W7 81-192 G103R): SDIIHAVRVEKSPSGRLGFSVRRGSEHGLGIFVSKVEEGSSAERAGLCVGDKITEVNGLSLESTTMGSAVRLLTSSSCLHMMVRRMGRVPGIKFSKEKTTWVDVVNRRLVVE

Work on VELRRIPIADTHL [ADGRV1pbm] yielded a Kd [1] of 1190 µM and a Kd [2] of 1.9 ± 0.4 µM.
